For the assay, the target named is C-Raf FL (full length CRAF with Y340E and Y341E activating mutations, co-expressed with h14-3-3 zeta) (Homo sapiens (Human), UniProt P04049, Y340E/Y341E). Put plainly: In vitro Raf activity determination, AlphaScreen p-MEK readout, c-Raf (C-Raf FL). In kind it is biochemical. The settings on record: c-Raf approximately 4 nM, ATP 1 μM, pre-incubation 60 minutes, reaction 1 hour. The procedure, abridged: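 Full-length C-Raf (~4 nM) pre-incubated 60 min at room temperature with compound and kinase-dead biotinylated MEK1 (~10 nM) in Tris pH 7.5, 15 mM MgCl2, BSA, DTT. Reaction started with 1 μM ATP and run 1 h at room temperature. Phospho-MEK detected by AlphaScreen with anti-p-MEK antibody.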
C-Raf FL (full length CRAF with Y340E and Y341E activating mutations, co-expressed with h14-3-3 zeta), sequence (P04049 whole entry Y340E/Y341E): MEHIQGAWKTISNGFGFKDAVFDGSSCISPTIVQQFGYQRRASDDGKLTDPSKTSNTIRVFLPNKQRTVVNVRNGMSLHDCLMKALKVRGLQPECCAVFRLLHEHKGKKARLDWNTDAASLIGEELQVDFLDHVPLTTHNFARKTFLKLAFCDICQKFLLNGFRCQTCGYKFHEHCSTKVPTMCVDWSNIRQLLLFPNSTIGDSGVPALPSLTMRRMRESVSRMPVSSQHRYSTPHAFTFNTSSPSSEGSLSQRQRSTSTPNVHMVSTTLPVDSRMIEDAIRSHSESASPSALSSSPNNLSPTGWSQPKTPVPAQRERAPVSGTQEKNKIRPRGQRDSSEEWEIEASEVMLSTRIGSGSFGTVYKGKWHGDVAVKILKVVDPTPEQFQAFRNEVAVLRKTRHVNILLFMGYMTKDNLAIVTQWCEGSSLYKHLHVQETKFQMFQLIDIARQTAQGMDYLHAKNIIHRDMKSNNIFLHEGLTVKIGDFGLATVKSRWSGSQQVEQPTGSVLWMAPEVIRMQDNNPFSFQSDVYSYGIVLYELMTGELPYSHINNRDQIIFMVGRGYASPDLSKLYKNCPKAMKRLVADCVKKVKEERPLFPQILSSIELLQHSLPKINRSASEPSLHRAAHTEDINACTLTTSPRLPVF
C-Raf FL (full length CRAF with Y340E and Y341E activating mutations, co-expressed with h14-3-3 zeta), sequence (P63104 whole entry partner): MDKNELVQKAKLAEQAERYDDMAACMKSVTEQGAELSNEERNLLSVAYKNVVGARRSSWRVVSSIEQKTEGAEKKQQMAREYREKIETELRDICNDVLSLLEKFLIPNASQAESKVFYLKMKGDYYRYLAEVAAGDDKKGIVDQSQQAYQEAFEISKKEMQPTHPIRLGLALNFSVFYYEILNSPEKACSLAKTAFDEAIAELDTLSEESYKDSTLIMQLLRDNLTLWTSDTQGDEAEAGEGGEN

Structures are written as SMILES.

Broadly, the IC50 is the midpoint of a concentration-inhibition curve. A high value points to a need for much substance. Take `Cc1ccc(NC(=O)c2ccnc(C(C)(F)F)c2)cc1-c1cnc2c(c1)N1CCOC[C@@H]1[C@H](CO)C2` [Example 495, 2-(1,1-difluoroethyl)-N-(3-((4aS,5R)-5-(hydroxymethyl)-1,2,4,4a,5,6-hexahydro-[1,4]oxazino[4,3-a][1,5]naphthyridin-9-yl)-4-methylphenyl)iso-nicotinamide]: the half-maximal inhibitory concentration (IC50) amounted to 0.1 nM. Take `CCN1C[C@H]2COCCN2c2cc(-c3cc(NC(=O)c4ccnc(C(F)(F)F)c4)ccc3C)cnc2C1=O` [Example 496, (S)-N-(3-(6-ethyl-7-oxo-1,2,4a,5,6,7-hexahydro-4H-[1,4]oxazino[4,3-a]pyrido[2,3-f][1,4]diazepin-10-yl)-4-methylphenyl)-2-(trifluoromethyl)iso-nicotinamide]: the IC50 worked out at 0.7 nM. Against the preceding compound, the IC50 is about 7-fold higher.

`CCN1C[C@H]2COCCN2c2cc(-c3cc(NC(=O)c4cccc(C(F)(F)F)c4)cnc3C)cnc2C1=O` [Example 497, (S)-N-(5-(6-ethyl-7-oxo-1,2,4a,5,6,7-hexahydro-4H-[1,4]oxazino[4,3-a]pyrido[2,3-f][1,4]diazepin-10-yl)-6-methylpyridin-3-yl)-3-(trifluoromethyl) benzamide] gave an IC50 of 1.4 nM.

For the compound `CCN1C[C@H]2COCCN2c2cc(-c3cc(NC(=O)c4ccnc(C(C)(F)F)c4)ccc3C)cnc2C1=O` [Example 498, (S)-2-(1,1-difluoroethyl)-N-(3-(6-ethyl-7-oxo-1,2,4a,5,6,7-hexahydro-4H-[1,4]oxazino[4,3-a]pyrido[2,3-f][1,4]diazepin-10-yl)-4-methylphenyl)iso-nicotinamide], half-maximal inhibition (IC50) was put at 0.6 nM. `CCN1C[C@H]2COCCN2c2cc(-c3cc(NC(=O)c4ccnc(C(F)(F)F)c4F)ccc3C)cnc2C1=O` [Example 499, (S)-N-(3-(6-ethyl-7-oxo-1,2,4a,5,6,7-hexahydro-4H-[1,4]oxazino[4,3-a]pyrido[2,3-f][1,4]diazepin-10-yl)-4-methyplhenyl)-3-fluoro-2-(trifluoromethyl)iso-nicotinamide]: the IC50 is 0.4 nM. The IC50 values of the last two compounds are within 1.5-fold of each other. As to `CCN1C[C@@H]2COCCN2c2cc(-c3cc(NC(=O)c4ccnc(C(F)(F)F)c4)ccc3C)cnc2C1=O` [Example 500, (R)-N-(3-(6-ethyl-7-oxo-1,2,4a,5,6,7-hexahydro-4H-[1,4]oxazino[4,3-a]pyrido[2,3-f][1,4]diazepin-10-yl)-4-methylphenyl)-2-(trifluoromethyl)iso-nicotinamide], 0.1 nM corresponded to half-maximal inhibition (IC50). This IC50 is about 4-fold lower than that of the compound before.

`CCN1C[C@@H]2COCCN2c2cc(-c3cc(NC(=O)c4cccc(C(F)(F)F)c4)cnc3C)cnc2C1=O` [Example 501, (R)-N-(5-(6-ethyl-7-oxo-1,2,4a,5,6,7-hexahydro-4H-[1,4]oxazino[4,3-a]pyrido[2,3-f][1,4]diazepin-10-yl)-6-methypyridin-3-yl)-3-(trifluoro-methyl)benzamide] yielded an IC50 of 0.2 nM.

Take `CCN1C[C@@H]2COCCN2c2cc(-c3cc(NC(=O)c4ccnc(C(C)(F)F)c4)ccc3C)cnc2C1=O` [Example 502, (R)-2-(1,1-difluoroethyl)-N-(3-(6-ethyl-7-oxo-1,2,4a,5,6,7-hexahydro-4H-[1,4]oxazino[4,3-a]pyrido[2,3-f][1,4]diazepin-10-yl)-4-methylphenyl)iso-nicotinamide]: the IC50 turned out to be 0.2 nM. That is a sub-nanomolar value. For the compound `CCN1C[C@@H]2COCCN2c2cc(-c3cc(NC(=O)c4ccnc(C(F)(F)F)c4F)ccc3C)cnc2C1=O` [Example 503], half-maximal inhibition (IC50) was put at 0.1 nM. The value for `CCN1C[C@@H]2CCOCCN2c2cc(-c3cc(NC(=O)c4ccnc(C(F)(F)F)c4)ccc3C)cnc2C1=O` [Example 504, (S)-N-(3-(7-ethyl-8-oxo-1,2,4,5,5a,6,7,8-octahydropyrido[2′, 3′:6,7][1,4]diazepino [1,2-d][1,4]oxazepin-11-yl)-4-methylphenyl)-2-(trifluoromethyl)iso-nicotinamide] was 15.4 nM; that for `CCN1C[C@H]2CCOCCN2c2cc(-c3cc(NC(=O)c4ccnc(C(F)(F)F)c4)ccc3C)cnc2C1=O` [Example 505, (R)-N-(3-(7-ethyl-8-oxo-1,2,4,5,5a,6,7,8-octahydropyrido[2′, 3′:6,7][1,4]diazepino [1,2-d][1,4]oxazepin-11-yl)-4-methylphenyl)-2-(trifluoromethyl)iso-nicotinamide] was 3.6 nM. `CCN1C[C@@H]2CCOCCN2c2cc(-c3cc(NC(=O)c4cccc(C(F)(F)F)c4)cnc3C)cnc2C1=O` [Example 506, (S)-N-(5-(7-ethyl-8-oxo-1,2,4,5,5a,6,7,8-octahydropyrido[2′, 3′:6,7][1,4]diazepino [1,2-d][1,4]oxazepin-11-yl)-6-methylpyridin-3-yl)-3-(trifluorometh-yl)benzamide] gave a 50% inhibitory concentration (IC50) of 80.3 nM. The compound `CCN1C[C@H]2CCOCCN2c2cc(-c3cc(NC(=O)c4cccc(C(F)(F)F)c4)cnc3C)cnc2C1=O` [Example 507, (R)-N-(5-(7-ethyl-8-oxo-1,2,4,5,5a,6,7,8-octahydropyrido[2′, 3′:6,7][1,4]diazepino [1,2-d][1,4]oxazepin-11-yl)-6-methylpyridin-3-yl)-3-(trifluorometh-yl)benzamide] registered an IC50 of 26.9 nM.

`Cc1ccc(NC(=O)c2ccnc(C(F)(F)F)c2)cc1-c1cnc2c(c1)N1CCOC[C@H]1C[C@H]2OCCO` [Example 508, N-(3-((4aR,6R)-6-(2-hydroxyethoxy)-1,2,4,4a,5,6-hexahydro-[1,4]oxazino[4,3-a][1,5]naphthyridin-9-yl)-4-methylphenyl)-2-(trifluoromethyl)iso-nicotinamide] had a 50% inhibitory concentration (IC50) of 0.2 nM. For the compound `Cc1ccc(NC(=O)c2ccnc(C(F)(F)F)c2)cc1-c1cnc2c(c1)N1CCOC[C@@H]1C[C@@H]2OCCO` [Example 509, N-(3-((4aS,6S)-6-(2-hydroxyethoxy)-1,2,4,4a,5,6-hexahydro-[1,4]oxazino[4,3-a][1,5]naphthyridin-9-yl)-4-methylphenyl)-2-(trifluorometh-yl)isonicotinamide], the concentration for half-maximal inhibition (IC50) amounted to 0.2 nM. That is a sub-nanomolar value. `Cc1ccc(NC(=O)c2ccnc(C(F)(F)F)c2F)cc1-c1cnc2c(c1)N1CCOC[C@H]1C[C@H]2OCCO` [Example 510, 3-fluoro-N-(3-((4aR,6R)-6-(2-hydroxyethoxy)-1,2,4,4a,5,6-hexahydro-[1,4]oxazino[4,3-a][1,5]naphthyridin-9-yl)-4-methylphenyl)-2-(trifluoromethyl)iso-nicotinamide] displayed a half-inhibitory concentration (IC50) of 0.1 nM. In turn, `Cc1ccc(NC(=O)c2ccnc(C(C)(C)F)c2)cc1-c1cnc2c(c1)N1CCOC[C@H]1C[C@H]2OCCO` [Example 511, 2-(2-fluoropropan-2-yl)-N-(3-((4aR,6R)-6-(2-hydroxyethoxy)-1,2,4,4a,5,6-hexahydro-[1,4]oxazino[4,3-a][1,5]naphthyridin-9-yl)-4-methylphenyl)iso-nicotinamide] returned an IC50 of 0.2 nM. Compound `Cc1ccc(NC(=O)c2cnnc(C(F)(F)F)c2)cc1-c1cnc2c(c1)N1CCOC[C@H]1C[C@H]2OCCO` [Example 512, N-(3-((4aR,6R)-6-(2-hydroxyethoxy)-1,2,4,4a,5,6-hexahydro-[1,4]oxazino[4,3-a][1,5]naphthyridin-9-yl)-4-methylphenyl)-6-(trifluorometh-yl)pyridazine-4-carboxamide] had an IC50 of 0.4 nM.

Regarding `Cc1ccc(NC(=O)c2ccnc(C(C)(F)F)c2)cc1-c1cnc2c(c1)N1CCOC[C@H]1C[C@H]2OCCO` [Example 513, 2-(1,1-difluoroethyl)-N-(3-((4aR,6R)-6-(2-hydroxyethoxy)-1,2,4,4a,5,6-hexahydro-[1,4]oxazino[4,3-a][1,5]naphthyridin-9-yl)-4-methylphenyl)iso-nicotinamide], half-maximal inhibition (IC50) required 0.1 nM. `Cc1ncc(NC(=O)c2cccc(C(F)(F)F)c2)cc1-c1cnc2c(c1)N1CCOC[C@H]1C[C@H]2OCCO` [Example 514, N-(5-((4aR,6R)-6-(2-hydroxyethoxy)-1,2,4,4a,5,6-hexahydro-[1,4]oxazino[4,3-a][1,5]naphthyridin-9-yl)-6-methylpyridin-3-yl)-3-(trifluorometh-yl)benzamide] gave an IC50 of 0.4 nM. This IC50 lies about 4-fold higher than the previous one. `Cc1ccc(NC(=O)c2ccnc(C(C)(F)F)c2)cc1-c1cnc2c(c1)N1CCOC[C@H]1[C@@](C#N)(CF)C2` [Example 515, N-(3-((4aR,5S)-5-cyano-5-(fluoromethyl)-1,2,4,4a,5,6-hexahydro-[1,4]oxazino[4,3-a][1,5]naphthyridin-9-yl)-4-methylphenyl)-2-(1,1-difluoroethyl)iso-nicotinamide]: half-maximal inhibition (IC50) was put at 0.1 nM. Compared with the last compound, the IC50 is about 4-fold lower.

With `Cc1ccc(NC(=O)c2ccnc(C(C)(F)F)c2)cc1-c1cnc2c(c1)N1CCOC[C@@H]1[C@](C#N)(CF)C2` [Example 516, N-(3-((4aS,5R)-5-cyano-5-(fluoromethyl)-1,2,4,4a,5,6-hexahydro-[1,4]oxazino[4,3-a][1,5]naphthyridin-9-yl)-4-methylphenyl)-2-(1,1-difluoroethyl)iso-nicotinamide], half-maximal inhibition (IC50) was put at 0.1 nM. Consider `Cc1ccc(NC(=O)c2ccnc(C(C)(F)F)c2)cc1-c1cnc2c(c1)N1CCOC[C@@H]1[C@@](C#N)(CF)C2` [Example 517, N-(3-((4aS,5S)-5-cyano-5-(fluoromethyl)-1,2,4,4a,5,6-hexahydro-[1,4]oxazino[4,3-a][1,5]naphthyridin-9-yl)-4-methyphenyl)-2-(1,1-difluoroethyl)iso-nicotinamide], for which the IC50 came out at 0.1 nM. The value for `Cc1ccc(NC(=O)c2ccnc(C(C)(F)F)c2)cc1-c1cnc2c(c1)N1CCOC[C@H]1[C@](C#N)(CF)C2` [Example 518, N-(3-((4aR,5R)-5-cyano-5-(fluoromethyl)-1,2,4,4a,5,6-hexahydro-[1,4]oxazino[4,3-a][1,5]naphthyridin-9-yl)-4-methyphenyl)-2-(1,1-difluoroethyl)iso-nicotinamide] was 0.1 nM.

Compound `Cc1ccc(NC(=O)c2ccnc(C(F)(F)F)c2)cc1-c1cnc2c(c1)N1CCOC[C@H]1[C@@](C#N)(CF)C2` [Example 520] registered a 50% inhibitory concentration (IC50) of 0.1 nM.

The values are drawn from patent US10377770B2 (Novartis AG, priority 2015, dated 2019).
